Assay results taken from ChEMBL document CHEMBL4321872, “Engineering a Potent, Long-Acting, and Periphery-Restricted Oxytocin Receptor Agonist with Anorexigenic and Body Weight Reducing Effects” (J Med Chem, 2020).
Calls of active or inactive are those of the source. The calls are words filed in the database; no cut-off is given here. Numbered stars: 1 amine (or outer) side, 2 acyl side, 3 side chain; on linkers, the order of the positions; unused ones are H or OH. Bridge positions count the residues as written; N and C are the ends. Square brackets hold non-standard residues; d marks the D form. Side chains are listed from the residue outwards. Peptide text beside a SMILES is read from it. * marks the point of attachment. X1 = O=C(O)CCCCCCCCCCCCCCCCC(=O)N[C@@H](CCCCNC(=O)CCOCCOCCNC(=O)CCOCCOCCNC(=O)C*)C(=O)O; X4 = O=C(O)CCCCCCCCCCCCCCCCC(=O)NCCOCCOCCOCCNC(=O)C*; PEG8 = NCCOCCOCCOCCOCCOCCOCCOCCOCCC(=O)O; X3 = CCCCCCCCCCCCCC(=O)NCCOCCOCCNC(=O)C*; Palmitoyl = CCCCCCCCCCCCCCCC(=O)*; X2 = O=C(CCC[*:2])[*:1]; Sar = CNCC(=O)O; Cam = NC(=O)C*

Columns and labels:
[1] = Half life in C57BL/6J mouse at 20 mg/kg, sc by LC-MS/MS analysis; format: ADME, organism-based; settings: in vivo
Oxytocin receptor [2] = target: T1, Oxytocin receptor (Homo sapiens, UniProt P30559); test: Agonist activity at recombinant human Gi/Go-coupled OTR expressed in CHOK1 cells assessed as induction of beta-arrestin recruitment measured after 90 mins in presence of 10% FBS by pathhunter assay; format: cell-based
T1 sequence (P30559 whole entry): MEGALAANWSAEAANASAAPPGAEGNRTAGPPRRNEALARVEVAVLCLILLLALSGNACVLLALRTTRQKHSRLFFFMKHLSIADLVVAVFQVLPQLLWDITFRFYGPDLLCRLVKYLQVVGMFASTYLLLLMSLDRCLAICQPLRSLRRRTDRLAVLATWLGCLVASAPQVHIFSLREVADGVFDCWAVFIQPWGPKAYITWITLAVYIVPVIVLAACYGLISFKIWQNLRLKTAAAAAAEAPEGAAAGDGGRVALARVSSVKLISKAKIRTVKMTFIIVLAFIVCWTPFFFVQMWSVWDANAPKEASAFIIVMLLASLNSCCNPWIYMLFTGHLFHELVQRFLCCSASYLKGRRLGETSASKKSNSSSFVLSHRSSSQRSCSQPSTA

[3] = target: T2, Oxytocin receptor (Homo sapiens) (UniProt P30559); test: Ratio of EC50 for agonist activity at recombinant human Gi/Go-coupled OTR expressed in CHOK1 cells in presence of 10% FBS to EC50 for agonist activity at recombinant human Gi/Go-coupled OTR expressed in CHOK1 cells in absence of 10% FBS; format: cell-based
T2 sequence (whole entry): T1 sequence (P30559 whole entry)

[4] = Aqueous solubility of the compound; format: physicochemical; settings: buffer
[5] = target: T2, Oxytocin receptor (Homo sapiens); test: Agonist activity at recombinant human Gi/Go-coupled OTR expressed in CHOK1 cells assessed as induction of beta-arrestin recruitment measured after 90 mins in absence of 10% FBS by pathhunter assay relative to oxytocin; format: cell-based
Oxytocin receptor [6] = target: T1, Oxytocin receptor; test: Agonist activity at recombinant human Gi/Go-coupled OTR expressed in CHOK1 cells assessed as induction of beta-arrestin recruitment measured after 90 mins in absence of 10% FBS by pathhunter assay; format: cell-based
[7] = target: T2, Oxytocin receptor (Homo sapiens); test: Agonist activity at recombinant human Gi/Go-coupled OTR expressed in CHOK1 cells assessed as induction of beta-arrestin recruitment measured after 90 mins in presence of 10% FBS by pathhunter assay relative to oxytocin; format: cell-based
[8] = Half life in C57BL/6J mouse; format: ADME; settings: in vivo
Mus musculus [9] = test: Anorexigenic activity in C57BL/6J mouse assessed as reduction in food intake at 0.5 mg/kg, sc measured at 3 hrs interval for 6 hrs; format: functional, organism-based
Mus musculus [10] = test: Anorexigenic activity in C57BL/6J mouse […] model assessed as reduction in body weight at 0.1 mg/kg, sc administered once daily for 9 days and measured daily during compound dosing; format: functional, organism-based
Mus musculus [11] = test: Anorexigenic activity in C57BL/6J mouse assessed as reduction in body weight at 0.5 mg/kg, sc measured daily for 2 days; format: functional, organism-based
Mus musculus [12] = test: Anorexigenic activity in C57BL/6J mouse […] model assessed as reduction in food intake at 0.1 mg/kg, sc administered once daily for 9 days and measured daily during compound dosing; format: functional, organism-based
Mus musculus [13] = test: Anorexigenic activity in C57BL/6J mouse assessed as reduction in food intake at 0.5 mg/kg, sc measured at 24 hrs post-dose; format: functional, organism-based
[14] = AUC (0 to last) in C57BL/6 mouse plasma at 1 mg/kg, sc by LC-MS analysis; format: ADME, organism-based; parameters: dose 1 mg/kg, time 0 - last, route subcutaneous
[15] = Ratio of drug level in brain to plasma in C57BL/6 mouse at 1 mg/kg, sc measured after 7 hrs by LC-MS analysis; format: ADME, organism-based; settings: read-out: BPR
Vasopressin V2 receptor = Vasopressin V2 receptor (Homo sapiens, UniProt P30518); test: Agonist activity at recombinant human V2 receptor expressed in CHOK1 cells assessed as increase in cAMP level measured after 30 mins by HTRF assay; format: cell-based
Mus musculus [16] = test: Anorexigenic activity in sc dosed C57BL/6J mouse […] model assessed as reduction in food intake administered once daily for 9 days and measured daily during compound dosing; format: functional, organism-based
Mus musculus [17] = test: Anorexigenic activity in C57BL/6J mouse assessed as reduction in food intake at 0.1 mg/kg, sc measured at 3 hrs interval for 24 hrs; format: functional, organism-based
Mus musculus [18] = test: Anorexigenic activity in sc dosed C57BL/6J mouse […] model assessed as reduction in body weight administered once daily for 9 days and measured daily during compound dosing; format: functional, organism-based
[19] = Terminal half life in C57BL/6 mouse plasma at 1 mg/kg, sc by LC-MS analysis; format: ADME, organism-based; settings: read-out: beta t1/2 (converted)
Mus musculus [20] = test: Anorexigenic activity in C57BL/6J mouse assessed as reduction in body weight at 0.1 mg/kg, sc measured daily for 2 days; format: functional, organism-based
[21] = Drug level in C57BL/6 mouse at 1 mg/kg, sc measured after 24 hrs by LC-MS analysis; format: ADME, organism-based; settings: in vivo, read-out: Drug uptake
[22] = Tmax in C57BL/6 mouse plasma at 1 mg/kg, sc by LC-MS analysis; format: ADME, organism-based
[23] = Cmax in C57BL/6 mouse plasma at 1 mg/kg, sc by LC-MS analysis; format: ADME, organism-based; parameters: dose 1 mg/kg, route subcutaneous

Chain of Vasopressin V2 receptor (P30518 whole entry): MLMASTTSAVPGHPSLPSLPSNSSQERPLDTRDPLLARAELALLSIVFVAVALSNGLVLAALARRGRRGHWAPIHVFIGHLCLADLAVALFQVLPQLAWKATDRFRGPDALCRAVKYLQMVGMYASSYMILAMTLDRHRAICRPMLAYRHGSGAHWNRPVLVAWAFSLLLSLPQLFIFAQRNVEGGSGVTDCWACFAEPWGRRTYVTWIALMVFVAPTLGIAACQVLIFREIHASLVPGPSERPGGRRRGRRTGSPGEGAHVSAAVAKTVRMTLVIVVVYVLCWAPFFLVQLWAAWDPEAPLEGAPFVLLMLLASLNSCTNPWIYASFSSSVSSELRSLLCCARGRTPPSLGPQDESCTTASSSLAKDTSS

SMILES	EC50 (Oxytocin receptor [2])	Ratio EC50 [3]	%max [5]	EC50 (Oxytocin receptor [6])	%max [7]	other results
CCCCCCCCCCCCCCCC(=O)NCCOCCOCCOCCOCCOCCOCCOCCOCCC(=O)NCCCC[C@H](NC(=O)CNC(=O)[C@@H]1CSSC[C@H](N)C(=O)N[C@@H](Cc2ccc(O)cc2)C(=O)N[C@@H]([C@@H](C)CC)C(=O)N[C@@H](CCC(N)=O)C(=O)N[C@@H](CC(N)=O)C(=O)N1)C(=O)NCC(N)=O (H-CYIQNCGK([PEG8-Palmitoyl])G-NH2; disulfide 1-6)	–	–	–	–	–	half-life [1]: 20 h
CC[C@H](C)[C@@H]1NC(=O)[C@H](Cc2ccc(O)cc2)NC(=O)CCCSC[C@@H](C(=O)NCC(=O)N[C@@H](CSCC(=O)NCCOCCOCCOCCNC(=O)CCCCCCCCCCCCCCCCC(=O)O)C(=O)NCC(N)=O)NC(=O)[C@H](CC(N)=O)NC(=O)[C@H](CCC(N)=O)NC1=O (YIQNCGC(X4)G-NH2; linker N-5 via X2)	173 nM	50.9	117%	3.41 nM	–	solubility [4]: Soluble
CC(C)C[C@H](NC(=O)[C@@H]1CCCN1C(=O)[C@@H]1CSCCCC(=O)N[C@@H](Cc2ccc(O)cc2)C(=O)N[C@@H](CSCC(N)=O)C(=O)N[C@@H](CCC(N)=O)C(=O)N[C@@H](CC(N)=O)C(=O)N1)C(=O)NCC(N)=O (YC(Cam)QNCPLG-NH2; linker N-5 via X2)	> 1000 nM	–	–	–	2%	–
CC[C@H](C)[C@@H]1NC(=O)[C@H](Cc2ccc(O)cc2)NC(=O)CCCSC[C@@H](C(=O)N2CCC[C@H]2C(=O)N[C@@H](CC(C)C)C(=O)NCC(N)=O)NC(=O)[C@H](CC(N)=O)NC(=O)[C@H](CSCC(N)=O)NC1=O (YIC(Cam)NCPLG-NH2; linker N-5 via X2)	14.4 nM	–	–	–	47%	–
CC[C@H](C)[C@@H]1NC(=O)[C@H](Cc2ccc(O)cc2)NC(=O)[C@@H](N)CSSC[C@@H](C(=O)N2CCC[C@H]2C(=O)N[C@@H](CC(C)C)C(=O)NCC(N)=O)NC(=O)[C@H](CC(N)=O)NC(=O)[C@H](CCC(N)=O)NC1=O [OXYTOCIN]	–	–	–	–	–	half-life [8]: 0.0333 to 0.05 h
CCCCCCCCCCCCCC(=O)NCCOCCOCCNC(=O)CSC[C@H](NC(=O)[C@@H]1CCCN1C(=O)[C@@H]1CSCCCC(=O)N[C@@H](Cc2ccc(O)cc2)C(=O)N[C@@H]([C@@H](C)CC)C(=O)N[C@@H](CCC(N)=O)C(=O)N[C@@H](CC(N)=O)C(=O)N1)C(=O)NCC(N)=O (YIQNCPC(X3)G-NH2; linker N-5 via X2)	5.28 nM	–	–	–	70%	–
CC[C@H](C)[C@@H]1NC(=O)[C@H](Cc2ccc(OC)cc2)NC(=O)CCCSC[C@@H](C(=O)N2CCC[C@H]2C(=O)N[C@@H](CC(C)C)C(=O)NCC(N)=O)NC(=O)[C@H](CC(N)=O)NC(=O)[C@H](CCC(N)=O)NC1=O [CARBETOCIN] (Y(Me)IQNCPLG-NH2; linker N-5 via X2)	–	–	–	–	–	Activity (Mus musculus [9]): Active; Activity (Mus musculus [10]): Active; Activity (Mus musculus [11]): inactive; Activity (Mus musculus [12]): Active; Activity (Mus musculus [13]): inactive; half-life [8]: 0.667 h
CC[C@H](C)[C@@H]1NC(=O)[C@H](Cc2ccc(O)cc2)NC(=O)CCCSC[C@@H](C(=O)NCC(=O)N[C@@H](CSCC(=O)NCCOCCOCCOCCNC(=O)CCCCCCCCCCCCCCCCC(=O)O)C(=O)N(C)CC(N)=O)NC(=O)[C@H](CC(N)=O)NC(=O)[C@H](CCC(N)=O)NC1=O (YIQNCGC(X4)[Sar]-NH2; linker N-5 via X2)	831 nM	15.9	34%	52.4 nM	–	–
CCCCCCCCCCCCCC(=O)NCCOCCOCCNC(=O)CSC[C@H](NC(=O)CNC(=O)[C@@H]1CSCCCC(=O)N[C@@H](Cc2ccc(O)cc2)C(=O)N[C@@H]([C@@H](C)CC)C(=O)N[C@@H](CCC(N)=O)C(=O)N[C@@H](CC(N)=O)C(=O)N1)C(=O)NCC(N)=O (YIQNCGC(X3)G-NH2; linker N-5 via X2)	18.9 nM	3.6	116%	5.27 nM	–	solubility [4]: Soluble
CCCCCCCCCCCCCC(=O)NCCOCCOCCNC(=O)CSC[C@@H]1NC(=O)[C@H](Cc2ccc(O)cc2)NC(=O)CCCSC[C@@H](C(=O)N2CCC[C@H]2C(=O)N[C@@H](CC(C)C)C(=O)NCC(N)=O)NC(=O)[C@H](CC(N)=O)NC(=O)[C@H](CCC(N)=O)NC1=O (YC(X3)QNCPLG-NH2; linker N-5 via X2)	> 1000 nM	–	–	–	2.3%	–
CC[C@H](C)[C@@H]1NC(=O)[C@H](Cc2ccc(O)cc2)NC(=O)CCCSC[C@@H](C(=O)NCC(=O)N[C@@H](CSCC(=O)NCCOCCOCCC(=O)NCCOCCOCCC(=O)NCCCC[C@H](NC(=O)CCCCCCCCCCCCCCCCC(=O)O)C(=O)O)C(=O)N(C)CC(N)=O)NC(=O)[C@H](CC(N)=O)NC(=O)[C@H](CCC(N)=O)NC1=O (YIQNCGC(X1)[Sar]-NH2; linker N-5 via X2)	464 nM	7.08	50%	65.5 nM	–	–
CC[C@H](C)[C@@H]1NC(=O)[C@H](Cc2ccc(O)cc2)NC(=O)CCCSC[C@@H](C(=O)N2CCC[C@H]2C(=O)N[C@@H](CSCC(N)=O)C(=O)NCC(N)=O)NC(=O)[C@H](CC(N)=O)NC(=O)[C@H](CCC(N)=O)NC1=O (YIQNCPC(Cam)G-NH2; linker N-5 via X2)	4.8 nM	–	–	–	97%	–
CCCCCCCCCCCCCC(=O)NCCOCCOCCNC(=O)CSC[C@@H]1NC(=O)[C@H]([C@@H](C)CC)NC(=O)[C@H](Cc2ccc(O)cc2)NC(=O)CCCSC[C@@H](C(=O)N2CCC[C@H]2C(=O)N[C@@H](CC(C)C)C(=O)NCC(N)=O)NC(=O)[C@H](CC(N)=O)NC1=O (YIC(X3)NCPLG-NH2; linker N-5 via X2)	> 1000 nM	–	–	–	5.8%	–
CCCCCCCCCCCCCC(=O)NCCOCCOCCNC(=O)CSC[C@H](NC(=O)CNC(=O)[C@@H]1CSCCCC(=O)N[C@@H](Cc2ccc(O)cc2)C(=O)N[C@@H]([C@@H](C)CC)C(=O)N[C@@H](CCC(N)=O)C(=O)N[C@@H](CC(N)=O)C(=O)N1)C(=O)N(C)CC(N)=O (YIQNCGC(X3)[Sar]-NH2; linker N-5 via X2)	56.9 nM	5.4	57%	10.5 nM	–	–
CC[C@H](C)[C@@H]1NC(=O)[C@H](Cc2ccc(O)cc2)NC(=O)CCCSC[C@@H](C(=O)NCC(=O)N[C@@H](CSCC(=O)NCCOCCOCCC(=O)NCCOCCOCCC(=O)NCCCC[C@H](NC(=O)CCCCCCCCCCCCCCCCC(=O)O)C(=O)O)C(=O)NCC(N)=O)NC(=O)[C@H](CC(N)=O)NC(=O)[C@H](CCC(N)=O)NC1=O (YIQNCGC(X1)G-NH2; linker N-5 via X2)	193 nM	74.7	125%	2.58 nM	–	AUC(0-t) [14]: 350 µg·h/mL; Kp at 7 h [15]: 0.005; EC50 (Vasopressin V2 receptor): 1800 nM; Activity (Mus musculus [16]): Dose-dependent effect; Activity (Mus musculus [17]): Active; Activity (Mus musculus [18]): Dose-dependent effect; half-life [19]: 24.2 h; Activity (Mus musculus [20]): Active; solubility [4]: Soluble; concentration at 24 h [21]: > 850 nM; Tmax [22]: 7 h; Cmax [23]: 9110 ng/mL
